Patent US10842845B2, “Oxytocin improves treatment of obstructive sleep apnea” (THE GEORGE WASHINGTON UNIVERSITY, priority 2014, dated 2020)

What was measured:
[1] = system: DREADDs-expressing PVN OXT neurons; assay: Whole-cell patch clamp of DREADDs-expressing PVN OXT neurons, CNO application; format: cell-based, rat
Description: CVNs in NA and DMNX were identified by the presence of fluorescent tracer rhodamine and imaged using differential interference contrast optics and infrared illumination. Whole cell voltage clamp recordings from CVNs were done using Axopatch 200B and pClamp 8 software (Axon Instruments, Union city, USA), at a holding voltage of −80 mV at room temperature. The patch pipettes (2.5-5 MΩ) were filled with a solution consisting (in mM) of KCl (150), MgCl2 (4), EGTA (10), Na-ATP (2) and HEPES (10) or K-gluconic acid (150), HEPES (10), EGTA (10), MgCl2 (1) and CaCl2 (1) at a pH of 7.3 for recording inhibitory or excitatory events respectively. For PVN studies, forebrain slices were used for electrophysiology recordings.
A rat minimal oxytocin (OXT) promoter element from ˜530 bp to +33 relative to the origin of transcription of the OXT gene (UCSC genome browser on rat November 2004 assembly; chr3:118,193,690 to 118,194,252) was synthesized de novo and flanked by multiple cloning sites (Genscript, Piscataway, N.J.) (McCann et al., 2002; Petersson et al., 1996). […] Expression of these Cre-dependent vectors will only be initiated in neurons selectively expressing Cre as they contain silencing double-foxed inverse open reading frames (Sawchenko and Swanson, 1982). […]

OXT receptors = assay: Calcium imaging in OXT receptor-expressing CHO cells on brainstem slices upon photoactivation of ChR2-containing PVN fibers; format: cell-based, rat; details: from baseline during first second; CIH/H animals with daily injections of CNO (chronic OXT neuron activation); n=17; CIH/H alone 8.1±0.01%
Description: Visualization of CHO cells expressing OXT receptors and the calcium indicator, as well as ChR2-containing PVN fibers, were performed on a confocal microscope system as previously described (Gamer and Buchel, 2012). To examine activation of OXT receptors upon optogenetic activation of ChR2-expressing PVN fibers in the DMV, CHO cells were pipetted onto the dorsal motor nucleus (DMV) of brain stem slices from animals previously injected with pLenti-Syn-hChR2(H134R)-EYFP-WPRE into the PVN, OXT-sensitive CHO cells within the boundaries of the DMV and in close apposition to ChR2-containing PVN fibers (7.5±0.5 μm) were used for experiments.
1-2 weeks after telemetry implantation, DREADDs receptors on PVN OXT neurons were activated daily by intraperitoneal (IP) injection of clozapine-n-oxide (CNO, 1.0 mg/kg). To investigate the effects of CNO on resting BP and HR in both DREADDs-expressing and sham animals, 3 days prior to CIH/H exposure (control days) baseline BP and HR values were recorded for a 20 min period before CNO injection. Animals from each group then received an IP injection of CNO, BP and HR were recorded for 1 hr, and the animals then underwent exposure to air for 8 hr to achieve acclimation to the chambers. […]

## C[N+]1([O-])CCN(C2=Nc3cc(Cl)ccc3Nc3ccccc32)CC1 [CNO, clozapine-n-oxide]
[1]; before CNO vs post CNO, 7 neurons
  firing of PVN OXT neurons expressing DREADDs with CNO application (in words): significantly increases
[1]; within 5 min of CNO application, from 0.19±0.05 Hz before CNO, n=7
  action potential firing frequency of DREADDs-expressing PVN neurons after CNO application: 0.75±0.14 Hz
OXT receptors
  average increase in intracellular calcium in OXT-sensitive CHO cells upon photostimulation of ChR2-containing PVN fibers in the DMV: 23.4±0.03%
